Consider 2 compounds from patent US10881678B2, “Cytotoxic agents for the treatment of cancer” (CytRx Corporation, priority 2013, dated 2021).

Structures are written as SMILES. Entries after “also recorded” stand apart in the source; their conditions may differ. Bounds are passed on as bounds.

Data set [1] concerns U87-luc glioma cells. The experiment in a line: Intracranial U87-luc glioblastoma xenograft in mice, Example 1 (bioluminescent imaging, survival). The conditions noted are these: for difference in tumor growth between 8 days and 22 days within the group: aldoxorubicin p>0.05, doxorubicin p<0.05; for survival time compared with vehicle-treated mice (Kaplan-Meier): result in words, aldoxorubicin also vs doxorubicin-treated group. It counts as in vivo. As for the experimental part:
Intracranial implantation of U87-luc glioma cells in mice: A U87MG subline, U87-luc with a luciferase reporter gene was used for establishing intracranial human glioblastoma tumors. Female BALB/c (nu/nu) mice, 6-8 weeks of age, were anesthetized with a ketamine/xylazine cocktail solution. Animals were secured in a Harvard Apparatus stereotaxic head frame, a 1 cm midline scalp incision was made, and 5×10^5 cells in 5 μL serum-free DMEM were injected into the left striatum (coordinates: 2.5 mm lateral and 0.5 mm posterior to the bregma) through a burr hole in the skull using a 10 μl Hamilton syringe to deliver tumor cells to a 3.5 mm intraparenchymal depth. The burr hole in the skull was sealed with bone wax and the incision closed using wound glue. Tumor growth was evaluated by bioluminescent imaging.
Aldoxorubicin treatment of mice: The study consisted of 8 vehicle-treated control mice (group C), 8 doxorubicin-treated mice (group D), and 8 aldoxorubicin-treated mice (group A). Treatment was initiated twelve days after intracranial implantation of glioblastoma multiforme (GBM) cells. Vehicle (10 mM sodium phosphate, 5% D-(+)-glucose, pH 6.4) or aldoxorubicin was administered intravenously for a total of six injections (i.e., 12, 19, 26, 42, 50, and 56, days after cell implantation). All the doses were ˜75% of the maximum tolerated dose (MTD) of 32 mg/kg/inj in mice except that the dose given after 50 days of cell implantation was 50% of the MTD. Doxorubicin was administered intravenously for a total of two injections (i.e., 12 and 19 days after cell implantation) with ˜75% of the MTD of 8 mg/kg/inj. Both the drugs and the vehicle were administered using an injection volume of 0.15 ml.
In vivo imaging of intracranial tumors: Intracranial tumor growth was quantified by bioluminescent imaging using an in vivo imaging system (Xenogen, Palo Alto, Calif.). All mice were given an IP injection of 100 μl of 30 mg/ml D-luciferin (PerkinElmer) suspended in DPBS 10 minutes before imaging to provide a substrate for the luciferase enzyme. Prior to imaging, mice were anesthetized with inhalation of isoflurane gas. Images were captured using the Xenogen Ivis 200 imaging system and quantified with Living Image 4.1 software from Xenogen for a region of interest that encompassed the head of the mouse. Image intensities were expressed as photons/sec/cm^2/sr.
Statistical Analysis: The log-rank test was used to create Kaplan-Meier survival curves to compare survival between control and drug-treated mice using the Statistical Analysis Software of SAS Institute, Inc., Cary, N.C. Differences between groups were assessed using the unpaired Student's t test. AR values are shown as the mean±standard deviation. A p value≤0.05 was considered statistically significant.

Data set [2] concerns U87-luc glioma cells. The experiment in a line: Intracranial U87-luc glioblastoma xenograft in mice, Example 2 (bioluminescent imaging, survival). Format: in vivo. Here is the method:
Female mice (6-8 weeks of age) were implanted intracranially with U87-luc subline with luciferase reporter gene to establish human glioblastoma tumors. Tumor growth was evaluated by bioluminescent imaging using D-luciferin substrate. 8 mice were treated with aldoxorubicin and 8 were treated with phosphate buffer saline (vehicle). Treatment started 9 days after implantation of the GBM cells. Aldoxorubicin or vehicle was administered i.v. once a week for three weeks (9, 16, and 23 days after cell implantation). The first two doses of aldoxorubicin were 75% and the third dose was 50% of the MTD of 32 mg/kg/injection in mice.

The nature of data set [3]: Plasma and tissue distribution by HPLC in intracranial tumor-bearing mice. Format: in vivo. Here is the method:
(§1) HPLC System and Conditions: An Agilent 1100 Series HPLC System (Wilmington, Del., USA) having a scanning fluorescent detector with excitation and emission wavelengths set at 480 and 560 nm, respectively, was used. Agilent Chemstation software was used for data acquisition. Separation was achieved on a Waters Spherisorb ODS2 column (4 mm×250 mm, 5 μm) fitted with a guard cartridge (BDS-Hypersil-C18, 5 μM). Elution was performed with mobile phase containing 65% monosodium phosphate, pH 2.2, and 35% acetonitrile. A constant flow rate of 1.25 ml/min was used for the separation. The column was set to 28° C. and the injection volume was 25 μl.
Sample preparation: Aldoxorubicin, 24 mg/kg/inj (75% of the MTD), was administered in intracranial GBM tumor-bearing mice through tail vein injection, and after 4, 8, 16, and 24 h after injection, mice (3 animals at each time point) were euthanized by CO2 gas. Blood samples were collected by heart puncture in heparinized tubes, and centrifuged for plasma separation. Immediately after blood sampling, organs (brain, heart, kidney liver and lung) were surgically removed. The plasma and tissues were stored at −80° C. until analysis.
Frozen samples were thawed at room temperature and homogenized in sterile saline using a PowerGen Model 125 homogenizer (Fisher Scientific) to obtain final tissue concentrations (w/v) of 150 mg/ml for the liver and brain; 125 mg/ml for the lung, heart and muscle; and 100 mg/ml for kidney. Perchloric acid (35%, v/v) was added to a 20 μl aliquot of plasma or tissue samples followed by 25 μl of mobile phase. The samples were vortexed followed by centrifugation at 10,000×g for 10 min. and 25 μl of the supernatant was applied to the HPLC column.

The nature of data set [4]: Aldoxorubicin retention in brain tumors and surrounding brain tissue by HPLC. Format: in vivo, mice. As to conditions: i.v. 24 mg/kg, 6 and 24 h after injection. Here is the method: as §1, with “The HPLC system used was an” for “An”, “Series” for “Series HPLC System”, “equipped with” for “having”, “respectively.” for “respectively, was used.”, “comprised of” for “containing”, “65% 50 mM” for “65%”
Sample preparation: For quantification of aldoxorubicin in brain tissue and brain tumors, mice were euthanized by CO2 inhalation 6 and 24 h after aldoxorubicin injection (24 mg/kg/inj), brains were harvested and tumors were resected. The harvested tissues were stored at −80° C. until analysis.
Frozen samples were thawed at room temperature and homogenized in sterile saline using a PowerGen Model 125 homogenizer (Fisher Scientific) to obtain final tissue concentrations (w/v) of 150 mg/ml. Perchloric acid (35%, v/v) was then added to a […] aliquot followed by 25 μl of mobile phase. […] In the tissue samples analyzed, aldoxorubicin eluted with the retention time of doxorubicin.

Data set [5] in a line: Aldoxorubicin/doxorubicin detection in brain tumors by stereomicroscope epifluorescence. It counts as in vivo, mice. The conditions noted are these: 24 h following the last injection; epifluorescence of whole brains. Here is the method: Aldoxorubicin/doxorubicin detection in brain tumors: Tumor-bearing mice were given intravenous injections of aldoxorubicin or doxorubicin as described above in Example 1. Mice were euthanized 24 h following the last injection. Brains were harvested and imaged using an MVX10 stereomicroscope (Olympus of America) equipped for brightfield and epifluorescence with filters encompassing doxorubicin-specific wavelengths to visualize drug accumulation.

Data set [6] is described as follows: Maximum tolerated dose in mice. It counts as in vivo. The conditions noted are these: intravenous.
Data set [7] is described as follows: Drug detection in cryosections of brain tissues of tumor-bearing mice (immunohistochemistry, confocal). As to conditions: drug fluorescence.
Experimental: Immunohistochemistry: For histologic analysis, brain tissues from control and drug-treated tumor-bearing mice were harvested, snap frozen in optimal cutting temperature (OCT) compound and stored at −80° C. Cryostat sections were placed on slides and fixed in zinc-buffered formalin. Slides were blocked with 5% goat serum in 1% BSA followed by overnight incubation with primary antibodies against CD31 (102402, Biolegend, San Diego, Calif.), Ki-67 (ab156956, Abcam, Cambridge, Mass.), Vimentin (ab92547, Abcam), cleaved-Caspase-3 (CP229B, Biocare Medical), and GFAP (NB300-141, Novus Biologicals, Littleton, Colo.). Slides were then incubated with primary antibody source-specific secondary antibodies conjugated to Alexa Fluor 488 or 635 and DAN as a nuclear counterstain. The detection fluorophores used were limited to those around the inherent fluorescence spectra of doxorubicin (λex=480 nm, λem=550-590 nm) (22876313) to avoid bleed-through and enable co-detection of the drug with respect to certain antigens. Epifluorescence photomicrographs were captured at 100× and 400× magnification using an FV1000 confocal microscope (Olympus of America, Center Valley, Pa.) equipped with multi-Argon, 405, 559, and 635 diodes. Quantitative analysis was performed with Slidebook software (Intelligent Imaging Innovations, Denver, Colo.).
For data set [8] the following is noted: literature; cited from earlier work.
Data set [9] deals with P-glycoprotein efflux pumps (Homo sapiens, UniProt P08183). As to conditions: literature; cited from earlier work.
The test system of data set [10] is glioblastoma growing in the brain. The conditions noted are these: literature; cited from earlier work.
Another data set concerns Glioblastoma cell lines. As to conditions: literature; cited from earlier work.
Setting [11] is: 22 days after implantation, aldoxorubicin treatment for 2 weeks, radiance.
[12] abbreviates: administered intravenously, intracranial human GBM tumors.
Where [13] appears, read: i.v. 24 mg/kg (~75% of the MTD).

Chain of P-glycoprotein efflux pumps (P08183 whole entry): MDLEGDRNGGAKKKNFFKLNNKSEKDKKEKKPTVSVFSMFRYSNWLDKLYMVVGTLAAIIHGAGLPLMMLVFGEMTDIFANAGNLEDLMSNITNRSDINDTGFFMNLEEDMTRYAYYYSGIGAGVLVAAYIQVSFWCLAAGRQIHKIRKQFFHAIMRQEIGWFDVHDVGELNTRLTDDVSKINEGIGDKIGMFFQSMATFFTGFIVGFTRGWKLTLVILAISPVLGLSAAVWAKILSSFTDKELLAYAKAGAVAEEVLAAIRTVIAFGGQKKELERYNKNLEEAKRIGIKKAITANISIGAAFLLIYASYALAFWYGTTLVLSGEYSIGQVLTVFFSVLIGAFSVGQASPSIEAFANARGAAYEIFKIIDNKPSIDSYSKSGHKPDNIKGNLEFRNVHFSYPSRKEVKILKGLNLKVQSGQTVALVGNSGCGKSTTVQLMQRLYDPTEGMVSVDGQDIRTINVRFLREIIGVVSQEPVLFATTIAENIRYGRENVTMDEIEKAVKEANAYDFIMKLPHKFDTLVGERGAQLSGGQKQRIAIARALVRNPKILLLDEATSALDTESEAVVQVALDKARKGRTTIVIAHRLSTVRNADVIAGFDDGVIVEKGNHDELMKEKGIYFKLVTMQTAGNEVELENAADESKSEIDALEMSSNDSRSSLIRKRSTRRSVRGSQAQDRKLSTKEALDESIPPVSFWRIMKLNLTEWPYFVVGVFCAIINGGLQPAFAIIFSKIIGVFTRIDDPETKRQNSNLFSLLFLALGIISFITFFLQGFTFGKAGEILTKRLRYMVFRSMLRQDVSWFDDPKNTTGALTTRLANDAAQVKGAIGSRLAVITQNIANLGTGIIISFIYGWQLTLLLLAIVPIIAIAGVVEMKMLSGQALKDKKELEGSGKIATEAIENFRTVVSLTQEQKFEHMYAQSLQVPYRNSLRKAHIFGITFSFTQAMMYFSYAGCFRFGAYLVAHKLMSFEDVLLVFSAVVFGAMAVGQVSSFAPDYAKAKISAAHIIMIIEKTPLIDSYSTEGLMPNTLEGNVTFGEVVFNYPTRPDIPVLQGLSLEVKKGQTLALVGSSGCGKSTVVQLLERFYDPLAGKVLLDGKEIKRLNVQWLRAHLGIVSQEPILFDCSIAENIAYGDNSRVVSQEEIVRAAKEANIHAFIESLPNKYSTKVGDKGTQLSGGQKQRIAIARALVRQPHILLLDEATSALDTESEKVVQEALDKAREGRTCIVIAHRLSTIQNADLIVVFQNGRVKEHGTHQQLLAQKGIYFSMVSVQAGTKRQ

For `COc1cccc2c1C(=O)c1c(O)c3c(c(O)c1C2=O)C[C@@](O)(/C(CO)=N/NC(=O)CCCCCN1C(=O)C=CC1=O)C[C@@H]3OC1CC(N)C(O)C(C)O1.Cl` (some centres unmarked) [aldoxorubicin], in the data set on U87-luc glioma cells [1] (setting [11]), the “average tumor size relative to the control group” value is 28% and the “average tumor size relative to the doxorubicin treatment group” value is 40%. Further, the “survival of animals 34 days after tumor implantation” value in the data set with U87-luc glioma cells [1] (34 days, group of 8 mice) is reported as “remained alive”. Also, the overall antitumor result in the data set with U87-luc glioma cells [1] (setting [12]) is “induces tumor regression and significantly increases survival”. In addition, in the data set on U87-luc glioma cells [1] (after 41 days), the animals still alive entry is on record as “seven of the eight”. Further, the “difference in tumor growth between 8 days and 22 days within the group” value with U87-luc glioma cells [1] (radiance) is given as “no relative difference in tumor growth”. Further, the “survival time compared with vehicle-treated mice (Kaplan-Meier)” value in the data set with U87-luc glioma cells [1] is given as “increased survival times; also recorded: survived a longer time”. The “mice with tumor regrowth” value with U87-luc glioma cells [2] (Day 29) was found to be 2. The mice dead with U87-luc glioma cells [2] (Day 29, group of 8 mice) was 1. In addition, the “other mice with tumor regrown” value with U87-luc glioma cells [2] (Day 33) came to 4. The compound further gave a mice dead in the data set with U87-luc glioma cells [2] (Day 33, group of 8 mice) of 3. The overall antitumor result with U87-luc glioma cells [2] (setting [12]) was “induces tumor regression and increases survival”. For the same compound, the “mice with detectable tumor” value in the data set on U87-luc glioma cells [2] (at 21 days, group of 8 mice) stood at 1. The “survival compared with vehicle (Kaplan-Meier)” value in the data set on U87-luc glioma cells [2] (result in words) is recorded as “survived longer”. Also, the “levels in the brain over time” value in data set [3] (from 4 h to 24 h, total brain tissue of tumor-bearing mice) was “remained almost same”. Besides, in data set [3] (setting [13]), the “plasma concentration relative to that in the brain” value is listed as “more than 200 fold”; the “plasma concentration relative to the mean concentration in liver, heart, lung and kidney” value is “more than 20 fold”. In addition, the “time of highest drug concentration” value in [3] (plasma and other organs except brain, i.v. 24 mg/kg (~75% of the MTD)) is 4 h. Besides, the “time to reach nearly 50% of its concentration” value in [3] (plasma and other tissues except the brain) is listed as 20 h. Moreover, the “retention in tumor tissues relative to surrounding brain tissues” value in data set [4] is 3- to 4 fold. Moreover, the “accumulation in glioblastoma tumors” value in [5] is “accumulates in glioblastoma tumors”. Moreover, the “maximum tolerated dose (MTD)” value in data set [6] was 32 mg/kg/inj. Also, the “accumulation in brain tumor and normal brain tissue” value in data set [7] is recorded as “accumulates in the brain tumor but not in normal brain tissue”.
Take `COc1cccc2c1C(=O)c1c(O)c3c(c(O)c1C2=O)C[C@@](O)(C(=O)CO)C[C@@H]3O[C@H]1C[C@H](N)[C@H](O)[C@H](C)O1` [doxorubicin, reference compound]: the “time after tumor implantation within which all animals died” value in the data set with U87-luc glioma cells [1] (group of 8 mice) is no more than 34 days. Also, the animals died in the data set with U87-luc glioma cells [1] (in 22 days, group of 8 mice) worked out at 2. In addition, the “difference in tumor growth between 8 days and 22 days within the group” value with U87-luc glioma cells [1] (radiance) is “a relative difference in tumor growth”. In addition, the “survival time compared with vehicle-treated mice (Kaplan-Meier)” value with U87-luc glioma cells [1] is listed as “no difference in the survival time; also recorded: no difference in the survival curves”. The “accumulation in glioblastoma tumors” value in data set [5] is reported as “not doxorubicin accumulates”. Further, in data set [6], the “maximum tolerated dose (MTD)” value is given as 8 mg/kg/inj. In [8], the “ability to cross the BBB” value was “lacks the ability to cross the BBB” and the “free concentration in glioma tissues” value is “below effective levels”. For the same compound, the “P-glycoprotein efflux pump substrate” value in data set [9] is “substrate of the P-glycoprotein efflux pumps”. In addition, the “effect on glioblastoma growing in the brain” value in data set [10] is “no effect”. In the data set on Glioblastoma cell lines, the “effect on glioblastoma cell lines” value was “driven to apoptosis following growth arrest”. The “accumulation in brain tumor and normal brain tissue” value in data set [7] is given as “not found in any appreciable amount in either the tumor or normal brain”.
